Test results taken from publication PMC2635431 (Journal of pharmaceutical sciences, 2009).

Experiments:
[1] = Corticosterone solubility in enhancer-PBS solution relative to PBS; conditions: enhancer concentration of Protocol I, 37°C
[2] = experimental, from the literature; cited from earlier work
[3] = tested on: human epidermal membrane (HEM); assay: Passive transport of corticosterone; format: in vitro ADME; conditions: CS lipoidal pathway permeability vs PBS control (Eq. 3)
[4] = tested on: human epidermal membrane (HEM); assay: Evaluation of direct enhancer treatment time on CS permeability of HEM; format: in vitro ADME; conditions: direct treatment 1, 4, 20 min; p > 0.05, t-test
[5] = tested on: human epidermal membrane (HEM); assay: Enhancer depletion and recovery of HEM barrier; format: in vitro ADME; conditions: Protocol II, enhancer depletion in PBS

| SMILES | effect of treatment time on permeability coefficients of CS [4] | time for HEM permeability to return to the PBS control value [5] | Enhancement Ratio (Emax) ([3]; Protocol III) | Enhancement Ratio (Emax) ([3]; Protocol II) | other results |
| --- | --- | --- | --- | --- | --- |
| COc1ccc(O)c(C(C)(C)C)c1 [BHA, 1,1-Dimethylethyl-4-methoxy phenol] | – | – | – | – | CS Solubility Ratio (enhancer/PBS solution vs PBS) [1]: 1.16 ± 0.03; log Koct [2]: 3.14 ^b^53 |
| CCCCCCCCCCCCN1CCCC1=O [DoP, 1-Dodecyl-2-pyrrolidinone] | – | – | 14 ± 6 | – | – |
| CCCCCCCC/C=C\CCCCCCCCO [OA, (Z)-Octadec-9-en-1-ol] | did not significantly affect | – | – | 5.5 ± 1.5 | – |
| CCCCCCCCN1CCCC1=O [OP, 1-Octyl-2-pyrrolidinone] | – | approximately 6 h | 16 ± 6 | – | – |
| OCCOc1ccccc1 [PHE, 2-Phenoxy-1-ethanol] | – | less than 2 h | – | – | – |
| CCCCCCCCCCCO [UD, Undecan-1-ol] | did not significantly affect | – | – | 17 ± 2 | – |

The next lines start with results.

| effect of treatment time on permeability coefficients of CS [4] | time for HEM permeability to return to the PBS control value [5] | SMILES | Enhancement Ratio (Emax) ([3]; Protocol III) | Enhancement Ratio (Emax) ([3]; Protocol II) | other results |
| --- | --- | --- | --- | --- | --- |
| did not significantly affect | – | CCCCCCCCCCCCCC(=O)OC(C)C [IPM, Propan-2-yl tetradecanoate] | 3.3 ± 1.1 | 2.8 ± 0.2 | – |
| – | approximately 6 h | CCCCCCCCO [OC, 1-Octanol] | 18 ± 2 | – | – |
| did not significantly affect | – | CCCCC(CC)COC(=O)c1ccccc1O (centres unmarked) [OS, 2-Ethylhexyl 2-hydroxybenzoate] | – | 5.0 ± 3.6 | – |
| did not significantly affect | – | CCCCC(CC)COC(=O)c1ccc(N(C)C)cc1 (centres unmarked) [PADO, 2-Ethylhexyl 4-(dimethylamino) benzoate] | 3.8 ± 1.1 | 4.1 ± 0.7 | – |
